# Measured values: PMC13276840, “Deacetylation of β‑Mannans by Two Complementary Carbohydrate Esterases from the Human Gut Microbe Bacteroides cellulosilyticus” (Biochemistry, 2026)
# Key:
# [1] = biological target: T1, BcCE7 (Bacteroides cellulosilyticus, UniProt E2NDM1); experiment: transacetylation, MALDI-ToF MS; type: biochemical; conditions: acyl acceptor with vinyl acetate donor, […] enzyme, […] sodium phosphate pH […] °C
# T1 construct: gene BACCELL_02381; N-terminal signal peptide removed, His tag (removal not mentioned), pET28a(+), synthetic gene, E. coli BL21 STAR
# T1 sequence (E2NDM1 7-414 limits assumed): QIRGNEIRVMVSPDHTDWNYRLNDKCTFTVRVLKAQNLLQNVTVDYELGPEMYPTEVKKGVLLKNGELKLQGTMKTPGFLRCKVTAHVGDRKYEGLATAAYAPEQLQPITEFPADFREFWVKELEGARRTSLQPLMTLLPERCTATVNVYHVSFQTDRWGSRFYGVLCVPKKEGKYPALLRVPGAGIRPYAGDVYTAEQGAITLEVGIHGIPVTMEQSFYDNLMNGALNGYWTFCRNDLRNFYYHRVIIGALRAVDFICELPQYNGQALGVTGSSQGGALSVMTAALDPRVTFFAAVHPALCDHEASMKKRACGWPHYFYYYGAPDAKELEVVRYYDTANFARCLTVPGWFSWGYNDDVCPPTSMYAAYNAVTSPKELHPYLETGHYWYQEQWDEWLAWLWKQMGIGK
# [2] = biological target: T2, BcCE25 (Bacteroides cellulosilyticus, UniProt E2NCW7); experiment: transacetylation, MALDI-ToF MS and NMR; type: biochemical; conditions: acyl acceptor with vinyl acetate donor, 200 nM enzyme, 10 mM sodium phosphate pH 5.9, 25 °C
# T2 construct: gene BACCELL_02125; N-terminal signal peptide removed, His tag (removal not mentioned), pET30a(+), synthetic gene, E. coli BL21 STAR
# T2 sequence (E2NCW7 20-263): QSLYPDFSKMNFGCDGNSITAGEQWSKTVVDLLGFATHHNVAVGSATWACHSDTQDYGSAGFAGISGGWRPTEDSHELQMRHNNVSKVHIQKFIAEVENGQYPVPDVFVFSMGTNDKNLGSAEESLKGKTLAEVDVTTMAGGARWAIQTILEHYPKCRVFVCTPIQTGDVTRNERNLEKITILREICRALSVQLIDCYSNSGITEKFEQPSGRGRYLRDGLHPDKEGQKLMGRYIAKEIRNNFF
smiles,measurement,setting,value
OC[C@H]1O[C@@H](O[C@H]2[C@H](O)[C@H](O)[C@H](O[C@H]3[C@H](O)[C@H](O)[C@H](O[C@H]4[C@H](O)[C@H](O)C(O)O[C@@H]4CO)O[C@@H]3CO)O[C@@H]2CO)[C@@H](O)[C@@H](O)[C@@H]1O (some centres unmarked) [mannotetraose],"transacetylation, MALDI-ToF MS",[1],"On mannotetraose, BcCE7 transferred mainly one acetyl group"
same,"transacetylation, MALDI-ToF MS and NMR",[2],BcCE25 transferred up to three acetylations
